Results from patent US20110124501A1, “Active compound combinations” (Bayer CropScience AG, priority 2009, published 2011).
Several values for one entry are separate records, joined by “and”; a condition that tells them apart may be missing. Identical values can stand only once. Counter-ions that a name gives are not always drawn. Like-named read-outs stand apart in the source and are kept apart here.

Columns and labels:
Septoria tritici = assay: Septoria tritici-test (wheat)/preventive; type: in vivo; settings: preventive, evaluated 21 days after inoculation
Leptosphaeria nodorum = Leptosphaeria nodorum test (wheat)/preventive; type: in vivo; settings: preventive, evaluated 8 days after inoculation
Phytophthora infestans = type: in vivo
Botrytis cinerea = assay: Botrytis test (beans)/preventive
Experimental: Botrytis Test (Beans)/Preventive
(§1) • Solvent: 24.5 parts by weight of acetone • 24.5 parts by weight of dimethylacetamide • Emulsifier: 1 part by weight of alkylaryl polyglycol ether
After the spray coating has dried on, 2 small pieces of agar covered with growth of Botrytis cinerea are placed on each leaf. The inoculated plants are placed in a darkened chamber at 20° C. and a relative atmospheric humidity of 100%.
2 days after the inoculation, the size of the lesions on the leaves is evaluated.

Sphaerotheca fuliginea = assay: Sphaerotheca test (cucumbers)/preventive; type: in vivo
Venturia inaequalis = assay: Venturia test (apples)/preventive
Experimental: Venturia Test (Apples)/Preventive
as §1
After the spray coating has dried on, the plants are inoculated with an aqueous conidia suspension of the causal agent of apple scab (Venturia inaequalis) and then remain for 1 day in an incubation cabinet at approximately 20° C. and a relative atmospheric humidity of 100%.
The plants are then placed in a greenhouse at approximately 21° C. and a relative atmospheric humidity of approximately 90%.
The test is evaluated 10 days after the inoculation.

Pyrenophora teres = assay: Pyrenophora teres-test (barley)/preventive; type: in vivo; settings: preventive, evaluated 8 days after inoculation
Alternaria solani = assay: Alternaria test (tomatoes)/preventive; type: in vivo
[1] = system: Blumeria graminis fsp. hordei; assay: Blumeria test (barley)/preventive; type: in vivo
Excerpt: After the spray coating has been dried, the plants are dusted with spores of Blumeria graminis fsp. hordei.

Plasmopara viticola = assay: Plasmopara test (grapevines)/preventive; type: in vivo
Puccinia triticina = assay: Puccinia triticina-test (wheat)/preventive; type: in vivo; settings: preventive, evaluated 8 days after inoculation

## Fc1ccc([C@]2(Cn3cncn3)O[C@H]2c2ccccc2Cl)cc1 (racemic) [(1.12), epoxiconazole]
Septoria tritici; 62.5 ppm a.i.
  Efficacy in % found: 71%
Leptosphaeria nodorum; 31.25 ppm a.i.
  Efficacy in % found: 71%

## C[C@@]1(c2ccc(Oc3ccccc3)cc2)OC(=O)N(Nc2ccccc2)C1=O (racemic) [(3.6), famoxadone]
Phytophthora infestans; application rate 0.4 ppm a.i.
  Efficacy in % found: 0%

## CC1(C(=O)Nc2ccc(O)c(Cl)c2Cl)CCCCC1 [(1.16), fenhexamid]
Botrytis cinerea; application rate 10 ppm a.i.
  Efficacy in % found: 0%

## O=c1c2cc(F)ccc2nc(-n2cncn2)n1-c1ccc(Cl)cc1Cl [(1.19), fluquinconazole]
Sphaerotheca fuliginea; application rate 1 ppm a.i.
  Efficacy in % found: 78%
Septoria tritici; 62.5 ppm a.i.
  Efficacy in % found: 86%
Leptosphaeria nodorum; 31.25 ppm a.i.
  Efficacy in % found: 43%

## Cn1cc(C(=O)Nc2ccc(F)cc2-c2ccc(Cl)c(Cl)c2)c(C(F)F)n1 [(2.2), bixafen]
Venturia inaequalis; application rate 1 ppm a.i.
  Efficacy in % found: 64%

## O=C(NCCc1ncc(C(F)(F)F)cc1Cl)c1ccccc1C(F)(F)F [(2.6), fluopyram]
Sphaerotheca fuliginea; application rate 4 ppm a.i.
  Efficacy in % found: 0%
Septoria tritici; 31.25 ppm a.i.
  Efficacy in % found: 80%
Pyrenophora teres; 31.25 ppm a.i.
  Efficacy in % found: 88%
Venturia inaequalis; application rate 2 ppm a.i.
  Efficacy in % found: 28%
Alternaria solani; application rate 1 ppm a.i.
  Efficacy in % found: 55%

## CC(C)C1C2CCC1c1c(NC(=O)c3cn(C)nc3C(F)F)cccc12 (stereo not drawn) [(2.10), isopyrazam]
Venturia inaequalis; application rate 1 ppm a.i.
  Efficacy in % found: 49%
Alternaria solani; application rate 0.5 ppm a.i.
  Efficacy in % found: 50%

## Cc1nn(C)c(F)c1C(=O)Nc1ccccc1C(C)CC(C)C (stereo not drawn) [(2.19), penflufen]
Sphaerotheca fuliginea; application rate 4 ppm a.i.
  Efficacy in % found: 0%
[1]; application rate 125 ppm a.i.
  Efficacy in % found: 67% and 56%
Venturia inaequalis; application rate 4 ppm a.i.
  Efficacy in % found: 0%
Alternaria solani; application rate 1 ppm a.i.
  Efficacy in % found: 30%

## CC(C)CC(C)c1sccc1NC(=O)c1cn(C)nc1C(F)(F)F (stereo not drawn) [(2.20), penthiopyrad]
Venturia inaequalis; application rate 2 ppm a.i.
  Efficacy in % found: 41%
Alternaria solani; application rate 0.5 ppm a.i.
  Efficacy in % found: 53%

## Cn1cc(C(=O)Nc2ccccc2C2CC2C2CC2)c(C(F)F)n1 (stereo not drawn) [(2.21), sedaxane]
Venturia inaequalis; application rate 2 ppm a.i.
  Efficacy in % found: 69%
Alternaria solani; application rate 1 ppm a.i.
  Efficacy in % found: 40%

## Cn1cc(C(=O)Nc2ccccc2-c2cc(F)c(F)c(F)c2)c(C(F)F)n1 [(2.45), 3-(difluoromethyl)-1-methyl-N-(3′,4′,5′-trifluorobiphenyl-2-yl)-1H-pyrazole-4-carboxamide]
Sphaerotheca fuliginea; application rate 2 ppm a.i.
  Efficacy in % found: 30%

## CO/C=C(/C(=O)OC)c1ccccc1Oc1cc(Oc2ccccc2C#N)ncn1 [(3.2), azoxystrobin]
Sphaerotheca fuliginea; application rate 1 ppm a.i.
  Efficacy in % found: 10%
Alternaria solani; application rate 0.25 ppm a.i.
  Efficacy in % found: 50%
Leptosphaeria nodorum; 31.25 ppm a.i.
  Efficacy in % found: 67%
Leptosphaeria nodorum; 62.5 ppm a.i.
  Efficacy in % found: 86%

## Cc1ccc(-c2c(Cl)nc(C#N)n2S(=O)(=O)N(C)C)cc1 [(3.3), cyazofamid]
Plasmopara viticola; application rate 0.4 ppm a.i.
  Efficacy in % found: 0%

## CSC1=N[C@@](C)(c2ccccc2)C(=O)N1Nc1ccccc1 [(3.7), fenamidone]
Phytophthora infestans; application rate 0.2 ppm a.i.
  Efficacy in % found: 0%

## CO/N=C(/C1=NOCCO1)c1ccccc1Oc1ncnc(Oc2ccccc2Cl)c1F [(3.8), fluoxastrobin]
Septoria tritici; 62.5 ppm a.i.
  Efficacy in % found: 71%
Venturia inaequalis; application rate 0.5 ppm a.i.
  Efficacy in % found: 88%
Alternaria solani; application rate 2 ppm a.i.
  Efficacy in % found: 70%
Leptosphaeria nodorum; 31.25 ppm a.i.
  Efficacy in % found: 71%

## COC(=O)N(OC)c1ccccc1COc1ccn(-c2ccc(Cl)cc2)n1 [(3.13), pyraclostrobin]
Puccinia triticina; 62.5 ppm a.i.
  Efficacy in % found: 63%
Sphaerotheca fuliginea; application rate 1 ppm a.i.
  Efficacy in % found: 0%
Leptosphaeria nodorum; 31.25 ppm a.i.
  Efficacy in % found: 57%

## CON=C(C(=O)OC)c1ccccc1CON=C(C)c1cccc(C(F)(F)F)c1 [(3.17), trifloxystrobin]
Puccinia triticina; 62.5 ppm a.i.
  Efficacy in % found: 78%
Sphaerotheca fuliginea; application rate 2 ppm a.i.
  Efficacy in % found: 27%
Pyrenophora teres; 62.5 ppm a.i.
  Efficacy in % found: 75%
Alternaria solani; application rate 2 ppm a.i.
  Efficacy in % found: 60%

## CCC(C)(NC(=O)c1cc(Cl)c(C)c(Cl)c1)C(=O)CCl (stereo not drawn) [(4.9), zoxamide]
Plasmopara viticola; application rate 0.4 ppm a.i.
  Efficacy in % found: 0%

## N#Cc1c(Cl)c(Cl)c(Cl)c(C#N)c1Cl [(5.4), chlorothalonil]
Venturia inaequalis; application rate 25 ppm a.i.
  Efficacy in % found: 83%
Alternaria solani; application rate 50 ppm a.i.
  Efficacy in % found: 24%

## O=C1c2ccccc2C(=O)N1SC(Cl)(Cl)Cl [(5.9), folpet]
Botrytis cinerea; application rate 12.5 ppm a.i.
  Efficacy in % found: 11%

## [Cl-].[Cu+2].[Cu+2].[OH-].[OH-].[OH-] [(5.15), copper oxychloride]
Venturia inaequalis; application rate 50 ppm a.i.
  Efficacy in % found: 40%
Alternaria solani; application rate 50 ppm a.i.
  Efficacy in % found: 41%

## [Cu+2].[OH-].[OH-] [(5.16), copper hydroxide]
Venturia inaequalis; application rate 25 ppm a.i.
  Efficacy in % found: 57%
Alternaria solani; application rate 50 ppm a.i.
  Efficacy in % found: 47%

## Cc1cc(C)nc(Nc2ccccc2)n1 [(7.7), pyrimethanil]
Botrytis cinerea; application rate 50 ppm a.i.
  Efficacy in % found: 11%

## COc1ccc(C(=CC(=O)N2CCOCC2)c2ccc(Cl)cc2)cc1OC [(9.2), dimethomorph]
Plasmopara viticola; application rate 0.2 ppm a.i.
  Efficacy in % found: 0%

## Cc1ccc(C(C)NC(=O)[C@@H](NC(=O)OC(C)C)C(C)C)cc1 (stereo partly drawn) [(9.4), iprovalicarb]
Plasmopara viticola; application rate 0.4 ppm a.i.
  Efficacy in % found: 0%

## C#CCOc1ccc(CCNC(=O)C(OCC#C)c2ccc(Cl)cc2)cc1OC (stereo not drawn) [(9.5), mandipropamid]
Plasmopara viticola; application rate 0.1 ppm a.i.
  Efficacy in % found: 14%
Plasmopara viticola; application rate 0.2 ppm a.i.
  Efficacy in % found: 25%

## CCCOC(=O)NCCCN(C)C [(10.11), propamocarb-hydrochloride]
Phytophthora infestans; application rate 10 ppm a.i.
  Efficacy in % found: 0%

## COC(=O)[C@@H](C)N(C(=O)Cc1ccccc1)c1c(C)cccc1C [(12.2), benalaxyl-M]
Plasmopara viticola; application rate 0.2 ppm a.i.
  Efficacy in % found: 0%
Plasmopara viticola; application rate 0.4 ppm a.i.
  Efficacy in % found: 0%

## COCC(=O)N(c1c(C)cccc1C)[C@H](C)C(=O)OC [(12.10), metalaxyl-M]
Plasmopara viticola; application rate 0.4 ppm a.i.
  Efficacy in % found: 57%

## O=[N+]([O-])c1cc(C(F)(F)F)c(Cl)c([N+](=O)[O-])c1Nc1ncc(C(F)(F)F)cc1Cl [(14.2), fluazinam]
Phytophthora infestans; application rate 0.5 ppm a.i.
  Efficacy in % found: 0%

## CCCCCCCCc1c(CC)nc2ncnn2c1N [(15.1), ametoctradin]
Phytophthora infestans; application rate 0.5 ppm a.i.
  Efficacy in % found: 0%

## CCNC(=O)NC(=O)/C(C#N)=N/OC [(15.7), cymoxanil]
Phytophthora infestans; application rate 1 ppm a.i.
  Efficacy in % found: 0%

## O=C(NCc1ncc(C(F)(F)F)cc1Cl)c1c(Cl)cccc1Cl [(15.17), fluopicolide]
Plasmopara viticola; application rate 0.4 ppm a.i.
  Efficacy in % found: 43%

## CCO[PH](=O)O [(15.20), fosetyl-Al]
Phytophthora infestans; application rate 10 ppm a.i.
  Efficacy in % found: 3%

## C#CCCOC(=O)Nc1cccc(CO/N=C(/c2ccccc2)c2nnnn2C)n1 [(15.96), but-3-yn-1-yl {6-[({[(Z)-(1-methyl-1H-tetrazol-5-yl)(phenyl)methylene]amino}oxy)methyl]pyridin-2-yl}carbamate]
Plasmopara viticola; application rate 0.4 ppm a.i.
  Efficacy in % found: 46%
Phytophthora infestans; application rate 0.2 ppm a.i.
  Efficacy in % found: 53%

## O=C(OCc1c(F)cccc1Cl)c1csc(C2CCN(C(=O)Cn3nc(C(F)F)cc3C(F)F)CC2)n1 [(I-16)]
Puccinia triticina; 500 ppm a.i.
  Efficacy in % found: 13%
Puccinia triticina; 1000 ppm a.i.
  Efficacy in % found: 38%
Sphaerotheca fuliginea; application rate 25 ppm a.i.
  Efficacy in % found: 30%
Sphaerotheca fuliginea; application rate 50 ppm a.i.
  Efficacy in % found: 30%
Plasmopara viticola; application rate 0.2 ppm a.i.
  Efficacy in % found: 29%
Plasmopara viticola; application rate 0.4 ppm a.i.
  Efficacy in % found: 0%
Phytophthora infestans; application rate 0.2 ppm a.i.
  Efficacy in % found: 70%
Phytophthora infestans; application rate 0.4 ppm a.i.
  Efficacy in % found: 61% and 74%
Botrytis cinerea; application rate 50 ppm a.i.
  Efficacy in % found: 0%
Botrytis cinerea; application rate 200 ppm a.i.
  Efficacy in % found: 0%
Pyrenophora teres; 500 ppm a.i.
  Efficacy in % found: 0%
Pyrenophora teres; 1000 ppm a.i.
  Efficacy in % found: 25% and 13%
[1]; application rate 1000 ppm a.i.
  Efficacy in % found: 0%
Venturia inaequalis; application rate 200 ppm a.i.
  Efficacy in % found: 33%
Alternaria solani; application rate 25 ppm a.i.
  Efficacy in % found: 30%
Alternaria solani; application rate 200 ppm a.i.
  Efficacy in % found: 47%
Leptosphaeria nodorum; 1000 ppm a.i.
  Efficacy in % found: 0%

## boscalid [(2.3)]
Puccinia triticina; 250 ppm a.i.
  Efficacy in % found: 38%
Puccinia triticina; 500 ppm a.i.
  Efficacy in % found: 56%

## fenpiclonil [(13.1)]
Pyrenophora teres; 500 ppm a.i.
  Efficacy in % found: 88%
Leptosphaeria nodorum; 500 ppm a.i.
  Efficacy in % found: 71%

## fludioxonil [(13.2)]
Botrytis cinerea; application rate 10 ppm a.i.
  Efficacy in % found: 15%
Pyrenophora teres; 125 ppm a.i.
  Efficacy in % found: 88%
Leptosphaeria nodorum; 250 ppm a.i.
  Efficacy in % found: 43%

## mancozeb [(5.19)]
Venturia inaequalis; application rate 12.5 ppm a.i.
  Efficacy in % found: 53%
Alternaria solani; application rate 12.5 ppm a.i.
  Efficacy in % found: 18%
Alternaria solani; application rate 50 ppm a.i.
  Efficacy in % found: 76%

## phosphorous acid and its salts [(15.62)]
Phytophthora infestans; application rate 10 ppm a.i.
  Efficacy in % found: 19%

## propiconazole [(1.40)]
Puccinia triticina; 125 ppm a.i.
  Efficacy in % found: 78%
Sphaerotheca fuliginea; application rate 2 ppm a.i.
  Efficacy in % found: 78%

## propineb [(5.23)]
Alternaria solani; application rate 50 ppm a.i.
  Efficacy in % found: 53%

## prothioconazole [(1.41)]
Sphaerotheca fuliginea; application rate 0.5 ppm a.i.
  Efficacy in % found: 37%
Septoria tritici; 125 ppm a.i.
  Efficacy in % found: 86%
Leptosphaeria nodorum; 62.5 ppm a.i.
  Efficacy in % found: 43%

## spiroxamine [(1.46)]
Puccinia triticina; 500 ppm a.i.
  Efficacy in % found: 56%
[1]; application rate 250 ppm a.i.
  Efficacy in % found: 94%

## tebuconazole [(1.47)]
Sphaerotheca fuliginea; application rate 4 ppm a.i.
  Efficacy in % found: 67%
Pyrenophora teres; 125 ppm a.i.
  Efficacy in % found: 38%
Venturia inaequalis; application rate 4 ppm a.i.
  Efficacy in % found: 43%

## triadimenol [(1.51)]
Leptosphaeria nodorum; 250 ppm a.i.
  Efficacy in % found: 50% and 43%
